Assays:
Format in all cases: cell-based
HTT mRNA [1] = assay: Splicing RT-qPCR assay (THP), Table 2A; settings: Table 2A, THP; for AC50: HTT alternative junction (AJ) mRNA, read-out: HTT AJ (AC50, increase in alternative junction mRNA); for IC50: HTT canonical junction (CJ) mRNA, read-out: HTT CJ (IC50, decrease in canonical junction mRNA)
MYB mRNA [2] = assay: Splicing RT-qPCR assay (THP), Table 2A; settings: Table 2A, THP; for AC50: MYB alternative junction (AJ) mRNA, read-out: MYB AJ (AC50, increase in alternative junction mRNA); for IC50: MYB canonical junction (CJ) mRNA, read-out: MYB CJ (IC50, decrease in canonical junction mRNA)
HTT mRNA [3] = assay: Gene panel canonical junction qPCR assay, decrease in CJ mRNA, Table 3; settings: decrease in CJ mRNA levels, canonical junction qPCR, gene panel
Outline: (§1)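 IC50 denotes the concentration giving 50% decrease in canonical-junction mRNA, fitted by 4-parameter logistic to percentage response derived from ΔΔCt versus housekeeping gene and DMSO control. Cells (A673 or K562) exposed 24 h to 11-point 3-fold serial dilutions from 10 uM top, DMSO ≤0.25%; junction-spanning primer/probe qPCR.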

MYB mRNA [4] = assay: as above; settings: decrease in CJ mRNA levels, canonical junction qPCR, gene panel
Outline: as §1

[5] = test system: SH-SY5Y (human neuroblastoma) cells; assay: Cell viability, Cell Titer Glo 2.0 assay; settings: read-out: Viability SHSY5Y.3 GI50
Outline: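 Viability was read by CellTiter-Glo 2.0 luminescence after a 72-hour compound exposure at 37° C. under 5% CO2. Cells were in IMDM plus 10% FBS containing 0.1% DMSO, and medium-only wells gave the blank.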

Compound	AC50 (HTT mRNA [1]) [nM]	IC50 (HTT mRNA [1]) [nM]	AC50 (MYB mRNA [2]) [nM]	IC50 (MYB mRNA [2]) [nM]	IC50 (HTT mRNA [3]) [nM]	IC50 (MYB mRNA [4]) [nM]	GI50 [5] [nM]
Cc1cn2cc(NC(=O)c3ccc(N4CCC(NC5CC5)CC4)c4cc(CF)nn34)nc2c(C)n1 [Compound 617, 4-[4-(cyclopropylamino)-1-piperidyl]-N-(6,8-dimethylimidazo[1,2-a]pyrazin-2-yl)-2-(fluoromethyl)-pyrazolo[1,5-a]pyridine-7-carboxamide]	> 10000	> 10000	100 to 1000	1000 to 10000	> 10000	1000 to 10000	1000 to 10000
COc1cc2nn(C)cc2cc1NC(=O)c1ccc(N2CCC(NC3CC3)CC2)n2cc(C)nc12 [Compound 618, 5-[4-(cyclopropylamino)-1-piperidyl]-N-(6-methoxy-2-methyl-indazol-5-yl)-2-methyl-imidazo[1,2-a]-pyridine-8-carboxamide]	1000 to 10000	1000 to 10000	< 100	100 to 1000	1000 to 10000	100 to 1000	1000 to 10000
COc1cc2nn(C)cc2cc1NC(=O)c1ccc(N2CCC(NC3CC3)CC2)c2cc(C)nn12 [Compound 619, 4-[4-(cyclopropylamino)-1-piperidyl]-N-(6-methoxy-2-methyl-indazol-5-y1)-2-methyl-pyrazolo[1,5-a]-pyridine-7-carboxamide]	1000 to 10000	1000 to 10000	100 to 1000	100 to 1000	1000 to 10000	100 to 1000	1000 to 10000
COCc1cc2c(N3CCC(NC4CC4)CC3)ccc(C(=O)Nc3cc(F)c4nc(C)cn4c3)n2n1 [Compound 620, 4-[4-(cyclopropylamino)-1-piperidyl]-N-(8-fluoro-2-methyl-imidazo[1,2-a]pyridin-6-yl)-2-(methoxymethyl)-pyrazolo[1,5-a]pyridine-7-carboxamide]	100 to 1000	100 to 1000	100 to 1000	< 100	100 to 1000	< 100	100 to 1000
COCc1cc2c(N3CCC(NC4CC4)CC3)ccc(C(=O)Nc3cc4cn(C)nc4cc3OC)n2n1 [Compound 621, 4-[4-(cyclopropylamino)-1-piperidyl]-2-(methoxymethyl)-N-(6-methoxy-2-methyl-indazol-5-yl)-pyrazolo[1,5-a]-pyridine-7-carboxamide]	100 to 1000	1000 to 10000	< 100	100 to 1000	1000 to 10000	100 to 1000	100 to 1000
Cc1cn2cc(NC(=O)c3ccc(N4CCC(NC5CC5)CC4)c4cc(CO)nn34)cc(F)c2n1 [Compound 622]	100 to 1000	100 to 1000	100 to 1000	< 100	100 to 1000	< 100	100 to 1000
Cc1cn2cc(NC(=O)c3ccc(N4CCC(NC5CC5)CC4)c4cc(CF)nn34)cc(F)c2n1 [Compound 623, 4-[4-(cyclopropylamino)-1-piperidyl]-2-(fluoromethyl)-N-(8-fluoro-2-methyl-imidazo[1,2-a]-pyridin-6-y1)pyrazolo[1,5-a]pyridine-7-carboxamide]	100 to 1000	100 to 1000	< 100	< 100	100 to 1000	< 100	100 to 1000
COc1cc2nn(C)cc2cc1NC(=O)c1c(F)cc(N2CCC(NC3CC3)CC2)c2cc(C)nn12 [Compound 624, 4-[4-(cyclopropylamino)-1-piperidyl]-6-fluoro-N-(6-methoxy-2-methyl-indazol-5-yl)-2-methyl-pyrazolo[1,5-a]pyridine-7-carboxamide]	> 10000	> 10000	> 10000	> 10000	> 10000	> 10000	> 10000
COc1cc2nn(C)cc2cc1NC(=O)c1ccc(N2CCC(NC3CC3)CC2)c2cc(CF)nn12 [Compound 625, 4-[4-(cyclopropylamino)-1-piperidyl]-2-(fluoromethyl)-N-(6-methoxy-2-methyl-indazol-5-yl)pyrazolo[1,5-a]-pyridine-7-carboxamide]	100 to 1000	100 to 1000	< 100	< 100	100 to 1000	< 100	100 to 1000
COc1cc2nc(C)cn2cc1NC(=O)c1c(F)cc(N2CCC(NC3CC3)CC2)c2cc(C)nn12 [Compound 626, 4-[4-(cyclopropylamino)-1-piperidyl]-6-fluoro-N-(7-methoxy-2-methylimidazo-[1,2-a]pyridin-6-yl)-2-methylpyrazolo-[1,5-a]pyridine-7-carboxamide]	> 10000	> 10000	> 10000	> 10000	> 10000	> 10000	> 10000
COc1cc2nn(C)cc2cc1NC(=O)c1c(Cl)cc(N2CCC(NC3CC3)CC2)n2cc(C)nc12 [Compound 627, 7-chloro-5-(4-(cyclopropylamino)piperidin-1-yl)-N-(6-methoxy-2-methyl-2H-indazol-5-yl)-2-methylimidazo[1,2-a]pyridine-8-carboxamide 2,2,2-trifluoroacetate]	> 10000	> 10000	> 10000	> 10000	> 10000	> 10000	> 10000
CCNC1CCN(c2ccc(C(=O)Nc3cc4cn(C)nc4cc3OC)c3nc(C)cn23)CC1 [Compound 628, 5-[4-(ethylamino)-1-piperidyl]-N-(6-methoxy-2-methyl-indazol-5-yl)-2-methyl-imidazo[1,2-a]pyridine-8-carboxamide]	100 to 1000	100 to 1000	< 100	< 100	100 to 1000	< 100	100 to 1000
COCCOCc1cc2c(N3CCC(NC4CC4)CC3)ccc(C(=O)Nc3cc(F)c4nc(C)cn4c3)n2n1 [Compound 629, 4-[4-(cyclopropylamino)-1-piperidyl]-N-(8-fluoro-2-methyl-imidazo[1,2-a]-pyridin-6-y1)-2-(2-methoxyethoxy-methyl)-pyrazolo[1,5-a]pyridine-7-carboxamide]	1000 to 10000	100 to 1000	< 100	< 100	100 to 1000	< 100	100 to 1000
COc1c(NC(=O)c2ccc(N3CCC(NC4CC4)CC3)c3cc(C)nn23)cn2cc(C)nc(C)c12 [Compound 630, 4-[4-(cyclopropylamino)-1-piperidyl]-N-(8-methoxy-1,3-dimethyl-pyrrolo[1,2-a]pyrazin-7-yl)-2-methyl-pyrazolo[1,5-a]pyridine-7-carboxamide]	1000 to 10000	1000 to 10000	1000 to 10000	1000 to 10000	1000 to 10000	1000 to 10000	1000 to 10000
COc1c(NC(=O)c2ccc(N3CCC(NC4CC4)CC3)n3cc(C)nc23)cn2cc(C)nc(C)c12 [Compound 631, 5-[4-(cyclopropylamino)-1-piperidyl]-N-(8-methoxy-1,3-dimethyl-pyrrolo[1,2-a]pyrazin-7-yl)-2-methyl-imidazo[1,2-a]pyridine-8-carboxamide]	1000 to 10000	1000 to 10000	1000 to 10000	1000 to 10000	1000 to 10000	1000 to 10000	1000 to 10000
COc1cc2c(N3CCC(NC4CC4)CC3)ccc(C(=O)Nc3cc4cn(C)nc4cc3OC)n2n1 [Compound 632, 4-[4-(cyclopropylamino)-1-piperidyl]-2-methoxy-N-(6-methoxy-2-methyl-indazol-5-yl) pyrazolo[1,5-a]pyridine-7-carboxamide]	100 to 1000	100 to 1000	< 100	< 100	100 to 1000	< 100	1000 to 10000
